Assay results: patent US20260125654A1, “Method for Producing a Three-Dimensional Human Multiple-Myeloma Model” (Etablissement Français du Sang, priority 2022, published 2026)

Tested on: plasma cells in MM spheroids
Assay: Viability of plasma cells in 3D MM spheroids treated with melphalan, flow cytometry (CD38/CD138/DAPI)
Format: cell-based, human
Details: for viability at 10 µM: Homo sapiens, 10 μM melphalan
Description: Following a total bone marrow sample at diagnosis in patients with multiple myeloma (MM), MM plasma cells are separated and then counted in a Malassez cell. The cells were then used freshly for cocultures or were frozen in CRYOSTOR. The MM total marrow cells coming from another patient were seeded according to the initial number thereof and the cells were incubated at a temperature of 37° C. and under an atmosphere with 5% carbon dioxide for about 2 weeks. Once confluence was reached, mesenchymal stem/stromal cells (MSCs), endothelial cells and endothelial progenitors were treated with trypsin and counted.
The MSC cells, the endothelial cells and the endothelial progenitors treated with trypsin and the fresh or thawed plasmocytes in a ratio of 1 MSC per 2 plasmocytes were suspended on ULA (Ultra-Low adherence) plates in 50 μL of RPMI medium (10% FCS, 1% PS). The cells were then incubated at a temperature of 37° C. and an atmosphere with 5% carbon dioxide with stirring. 150 μL of RPMI medium were added after incubation for 24 h and the medium was renewed 2 times per week, removing 100 μL of supernatant.
A treatment with […] melphalan was added to the spheroid culture medium 48 h after the formation thereof and the culture was continued for 14 days. The selection method was supplemented by a control situation, without the presence of a drug candidate. Part of the cultures was stopped after 7 (D+7) and 11 (D+11) days to analyze the viability of the plasma cells, whereas the rest of the cultures was stopped after 14 days of culture (D+14). Spheroid cells were mechanically dissociated at 1400 rpm with AccuMax® and then transferred into a tube suitable for flow cytometry and washed with PBS and labeled with the CD38 FITC and CD138 AF700 specific antibodies in MACS buffer. The cells were then incubated at 4° C. for 30 minutes, washed and resuspended in a MACS buffer medium and filtered at 70 μm, and finally labeled with the viability marker DAPI before passing through flow cytometry.

N[C@@H](Cc1ccc(N(CCCl)CCCl)cc1)C(=O)O [melphalan]
viability at 10 µM (D+7): 5%
viability at 10 µM (D+11): < 5%
viability at 10 µM (D+14): < 10%
response to treatment of plasma cells within spheroids (melphalan 10 μM): strong response
